Assay results reported in patent US20240122930A1, “INTEGRIN INHIBITORS AND USES THEREOF IN COMBINATION WITH OTHER AGENTS” (Pliant Therapeutics, Inc., priority 2022, published 2024).
“Also recorded” adds a separate entry of the source. Blank lines part the entries; values can stand above or below the molecule they belong to.

Columns and labels:
[1] = target: recombinant human integrin αVβ6 (Homo sapiens, UniProt P06756+P18564); assay: Solid phase integrin αVβ6 binding assay; details: TGFβ1 LAP, values presented in four ranges, read-out: αvβ6 Inhibition IC50 (nM)-range
Protocol: Microplates were coated with recombinant human integrin αVβ6 (2 μg/mL) in PBS (100 μL/well 250 C, overnight). The coating solution was removed, washed with wash buffer (0.05% Tween 20; 0.5 mM MnCl2; in 1×TBS). The plate was blocked with 200 μL/well of Block Buffer (1% BSA; 5% sucrose; 0.5 mM MnCl2; in 1×TBS) at 370 C for 2 h. Dilutions of testing compounds and recombinant TGFβ1 LAP (0.67 μg/mL) in binding buffer (0.05% BSA; 2.5% sucrose; 0.5 mM MnCl2; in 1×TBS) were added. The plate was incubated for 2 hours at 250 C, washed, and incubated for 1 hour with Biotin-Anti-hLAP. Bound antibody was detected by peroxidase-conjugated streptavidin. The IC50 values for testing compounds were calculated by a four-parameter logistic regression.
The compounds tested were compound samples prepared according to procedures described in the Synthetic Examples section, with the stereochemical purity as indicated in the Examples.
A third series of exemplary compounds was selected for testing in the solid phase integrin αVβ6 binding assay. The compounds tested were compound samples prepared according to procedures described in the Synthetic Examples section, with the stereochemical purity as indicated in the Examples. […] Bound antibody was detected by peroxidase-conjugated streptavidin. The IC50 values for testing compounds were calculated by a four-parameter logistic regression.

[2] = test system: explanted human lung tissue from patients with idiopathic pulmonary fibrosis; assay: Fibrosis-related gene expression (nCounter Fibrosis Panel) in precision cut lung slices; format: cell-based
Source text: Briefly, tissue samples from patients with IPF were acquired at the time of lung transplantation. […] Treated slices were lysed in mRNA-compatible buffer for gene expression analysis. For this study, the lysate from n=6 slices per treatment per lung were pooled for analysis using the nCounter Fibrosis Panel (Nanostring) on the nCounter Max analyzer (Nanostring). This commercially available panel of 770 genes includes genes related to initial tissue damage response, chronic inflammation, proliferation of pro-fibrotic cells, and tissue modification leading to fibrotic disease. Technical quality control and normalization of raw Nanostring mRNA count data was performed using an R framework developed by Bhattacharya et al. (Bhattacharya A. et al., Brief Bioinform. 2021 May 20; 22(3):bbaa163; herein incorporated by reference in its entirety). The R packages limma (see URL www.bioconductor.org/packages/release/bioc/html/limma.html, which is incorporated herein by reference in its entirety) and voom (Law, C.

lung Col1a1 expression [3] = assay: Precision cut lung slices, chronic bleomycin exposure, versus and with nintedanib and pirfenidone; format: cell-based, mice (C57BL/6); details: chronic bleomycin PCLS, 7 days culture, single agents
Protocol: Mice (C57BL/6) were administered 3 U/kg of bleomycin (Teva Pharmaceuticals; North Wales, PA) on Day 0 and 1 U/kg of bleomycin on days 14, 28, 42 and 56 via oropharyngeal aspiration while under anesthesia. At day 70, 14 days following the final bleomycin insult, precision cut lung slices were obtained. […] The lobes were then subjected to precision slicing to obtain samples for culture using a microtome (Compresstome VF-300-OZ, Precisionary; Greenville, NC). Individual slices were distributed in a multiwell culture plate and cultured for 7 days under control (DMSO) and test compound conditions. The viability of the slices over the course of culturing was confirmed by WST-1 assay of mitochondrial activity. During the culture period, slices in the control group were treated with DMSO and slices in the test group were treated with a DMSO solution of one of: […]

COL1A1 expression = assay: Precision cut lung slices from human IPF explants, COL1A1 expression; format: cell-based; details: human IPF PCLS; for expression of COL1A1: 7 days, treatment alone: nintedanib 75 nM, pirfenidone 50 μM
Source text: Explanted lung tissue was obtained from human IPF subjects and inflated with agarose as described in the preceding examples. Biopsy cores were obtained from the agarose-inflated lung tissue. The biopsy cores were subjected to precision slicing to obtain several hundred μm thick. Individual slices were distributed in a multiwell culture plate and cultured for […] under control (DMSO) and test compound conditions. The viability of the slices over the course of culturing was confirmed by WST-1 assay of mitochondrial activity.
PCLS from 5-7 idiopathic pulmonary fibrosis (IPF) lung tissue samples were cultured for seven days with one of: DMSO; Compound 5 at 200 nM; nintedanib at 75 nM; pirfenidone at 50 μM; a combination of Compound 5 at 200 nM and nintedanib at 75 nM; a combination of Compound 5 at 200 nM and pirfenidone at 50 μM; or an ALK5 inhibitor at 1 μM. […] FIG. 6D is a bar graph showing relative expression of COL1A1 in precision cut lung slices (PCLS) from idiopathic pulmonary fibrosis (IPF) lung tissue upon exposure to Compound 5, clinical standard of care compounds nintedanib (Nin) and pirfenidone (Pirf), and an ALK5 inhibitor, all versus DMSO control.
PCLS from a single IPF lung tissue sample were cultured for seven days with Compound 5 at concentrations of 200 pM, 2 nM, 60 nM, 200 nM, and 1 μM, along with 0.1% DMSO control and an ALK5 inhibitor at 1 μM. […] COL1A1 expression is also graphed for the PCLS in the presence of 0.1% DMSO control, and an ALK5 inhibitor at 1 μM.

lung Col1a1 expression [4] = assay: Precision cut lung slices, chronic bleomycin exposure, Col1a1 expression; format: cell-based, mice (C57BL/6); details: chronic bleomycin PCLS, 7 days culture
Protocol: Mice (C57BL/6) were administered 3 U/kg of bleomycin (Teva Pharmaceuticals; North Wales, PA) on Day 0 and 1 U/kg of bleomycin on days 14, 28, 42 and 56 via oropharyngeal aspiration while under anesthesia. At day 70, 14 days after the final bleomycin insult, precision cut lung slices were obtained. […] The lobes were then subjected to precision slicing to obtain samples for culture using a microtome (Compresstome VF-300-OZ, Precisionary; Greenville, NC). Individual slices were distributed in a multiwell culture plate and cultured for 7 days under control (DMSO) and test compound conditions. The viability of the slices over the course of culturing was confirmed by WST-1 assay of mitochondrial activity. […] Compound 5; and the small molecule ALK5 inhibitor. […] Compound 5 was run at approximate IC50 for inhibition of TGF-beta activation by αVβ6.

[5] = test system: Type I Collagen gene Col1a1 expression; assay: Precision cut lung slices, acute bleomycin exposure, Col1a1 expression; format: cell-based, mice (C57BL/6); details: acute bleomycin PCLS, 3 days culture; integrin inhibitors at IC50 for TGF-beta activation, pan-αV and ALK5 inhibitors at 10× IC50
[6] = test system: participants with idiopathic pulmonary fibrosis (IPF); details: FIG. 26, histograms from left to right; from USPI or literature; cited from earlier work
[7] = single treatment, adj. p-value <0.05

Sequence of recombinant human integrin αVβ6 (P06756 31-992 limits assumed): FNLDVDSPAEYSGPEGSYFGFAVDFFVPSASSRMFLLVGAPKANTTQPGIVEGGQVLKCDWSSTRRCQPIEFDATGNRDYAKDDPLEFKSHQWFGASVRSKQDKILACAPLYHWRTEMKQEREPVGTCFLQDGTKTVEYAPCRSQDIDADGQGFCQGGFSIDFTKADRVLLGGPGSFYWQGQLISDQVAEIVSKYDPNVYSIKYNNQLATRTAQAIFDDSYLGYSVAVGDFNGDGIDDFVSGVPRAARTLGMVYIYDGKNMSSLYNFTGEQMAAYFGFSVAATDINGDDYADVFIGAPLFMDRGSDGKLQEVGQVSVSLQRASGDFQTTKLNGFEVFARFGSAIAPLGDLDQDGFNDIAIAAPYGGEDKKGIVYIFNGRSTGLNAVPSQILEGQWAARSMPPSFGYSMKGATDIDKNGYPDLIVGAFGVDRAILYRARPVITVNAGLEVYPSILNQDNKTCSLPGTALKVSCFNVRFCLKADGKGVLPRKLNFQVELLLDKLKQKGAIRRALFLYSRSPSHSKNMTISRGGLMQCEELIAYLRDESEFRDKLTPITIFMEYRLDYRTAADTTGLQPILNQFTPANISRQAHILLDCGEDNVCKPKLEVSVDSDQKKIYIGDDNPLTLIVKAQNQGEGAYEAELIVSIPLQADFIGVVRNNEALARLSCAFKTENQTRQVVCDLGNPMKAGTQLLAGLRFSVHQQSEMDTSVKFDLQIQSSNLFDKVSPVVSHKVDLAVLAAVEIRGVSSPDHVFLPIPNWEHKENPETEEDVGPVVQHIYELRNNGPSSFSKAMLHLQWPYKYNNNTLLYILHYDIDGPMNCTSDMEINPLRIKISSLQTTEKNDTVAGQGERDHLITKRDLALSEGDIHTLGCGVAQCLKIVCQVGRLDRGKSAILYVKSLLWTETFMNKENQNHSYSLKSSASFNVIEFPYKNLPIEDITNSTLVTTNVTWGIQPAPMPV
Sequence of recombinant human integrin αVβ6 (P18564 22-707 limits assumed): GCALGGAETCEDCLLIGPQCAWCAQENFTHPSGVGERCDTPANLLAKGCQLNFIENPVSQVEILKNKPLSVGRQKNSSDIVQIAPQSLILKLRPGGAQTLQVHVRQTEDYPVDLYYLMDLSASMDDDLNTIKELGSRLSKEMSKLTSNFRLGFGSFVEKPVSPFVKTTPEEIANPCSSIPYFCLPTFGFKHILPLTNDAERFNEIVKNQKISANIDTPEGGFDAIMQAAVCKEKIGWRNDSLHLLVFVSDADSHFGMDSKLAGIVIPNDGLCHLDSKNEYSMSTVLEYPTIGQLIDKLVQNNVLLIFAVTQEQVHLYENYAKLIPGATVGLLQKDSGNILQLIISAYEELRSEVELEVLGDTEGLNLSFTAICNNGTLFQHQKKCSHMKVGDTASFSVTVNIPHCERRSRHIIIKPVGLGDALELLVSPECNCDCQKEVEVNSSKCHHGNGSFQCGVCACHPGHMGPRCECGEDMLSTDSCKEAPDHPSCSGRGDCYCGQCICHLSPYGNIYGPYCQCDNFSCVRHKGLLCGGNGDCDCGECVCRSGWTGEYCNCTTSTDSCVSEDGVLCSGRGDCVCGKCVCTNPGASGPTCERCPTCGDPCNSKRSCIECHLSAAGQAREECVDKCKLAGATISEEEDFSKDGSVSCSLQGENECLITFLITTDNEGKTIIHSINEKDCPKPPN

IC50 [1]: < 50 nM
SMILES: COCCN(CCCCc1ccc2c(n1)NCCC2)CCC(Nc1ncnc2cnccc12)C(=O)O (stereo not shown) [Compound 17, 4-((2-methoxyethyl)(4-(5,6,7,8-tetrahydro-1,8-naphthyridin-2-yl)butyl)amino)-2-(pyrido[3,4-d]pyrimidin-4-ylamino)butanoic acid]

logFC CYP2J2 [2, 7]: 1.025
SMILES: COC(=O)c1ccc2c(c1)NC(=O)/C2=C(\Nc1ccc(N(C)C(=O)CN2CCN(C)CC2)cc1)c1ccccc1 [nintedanib, 3-Z-[1-(4-(N-((4-methyl-piperazin-1-yl)-methylcarbonyl)-N-methyl-amino)-anilino)-1-phenyl-methylene]-6-methoxycarbonyl-2-indolinone, reference compound]
Genes up-regulated, Venn region G (FIG. 24) ([2]; IPF precision cut lung slices, 7 days, only altered by nintedanib in the absence of Compound 5): ACTA2 and CCL19 and COL6A5 and ELN and IGF1 and PYGM | lung Col1a1 expression vs DMSO vehicle control slices (lung Col1a1 expression [3]): slight increase | expression of COL1A1 (COL1A1 expression): did not significantly reduce

SMILES: Cc1cccc(-c2n[nH]cc2-c2ccc(F)c(-c3cnn(CCO)c3)c2)n1 [small molecule ALK5 inhibitor, 4-[2-Fluoro-5-[3-(6-methyl-2-pyridinyl)-1H-pyrazol-4-yl]phenyl]-1H-pyrazole-1-ethanol, reference compound]
lung Col1a1 expression, normalized to DMSO control slices (lung Col1a1 expression [4]): greatest decrease | lung Col1a1 expression vs DMSO vehicle control slices (lung Col1a1 expression [3]): substantial, statistically significant (p<0.0001 vs vehicle) decrease | lung Col1a1 expression, normalized to DMSO control slices (COL1A1 expression; 3 days, 3G9 ≥400 ng/mL, Compound 5 179 nM, ALK5 inhibitor 1 μM): decrease in lung Col1a1 expression | Type I Collagen gene Col1a1 expression, normalized to DMSO control slices [5]: greatest decrease

SMILES: Cc1ccc(=O)n(-c2ccccc2)c1 [pirfenidone, 5-methyl-1phenyl-2-1(H)-pyridone, reference compound]
Genes Down-regulated with Compound 5 and Pirfenidone Alone or in Combination, region F ([2]; FIG. 24 Venn region F: altered by Compound 5 or pirfenidone alone, but not by Compound 5 in combination with pirfenidone): CXCR4; also recorded: PECAM1 | Genes Up-regulated with Compound 5 and Pirfenidone Alone or in Combination, region G ([2]; FIG. 24 Venn region G: only altered by pirfenidone in the absence of Compound 5): COL7A1 and MMP7 and PTGS2 | logFC KNG1 [2, 7]: −1.1 | lung Col1a1 expression vs DMSO vehicle control slices (lung Col1a1 expression [3]): slight increase | expression of COL1A1 (COL1A1 expression): did not significantly reduce

SMILES: CC(C)(C)c1cc(Br)cc([C@H](CC(=O)O)NC(=O)CNC(=O)c2cc(O)cc(NC3=NCC(O)CN3)c2)c1 (stereo partly drawn) [second pan-αV small molecule inhibitor, (3S)—N-[3-hydroxy-5-[(1,4,5,6-tetrahydro-5-hydroxy-2-pyrimidinyl)amino]benzoyl]glycyl-3-[3-bromo-5-(1,1-dimethylethyl)phenyl]-β-alanine]
Type I Collagen gene Col1a1 expression, normalized to DMSO control slices [5]: decreased Type I Collagen gene Col1a1 expression comparably

SMILES: [O-][S+]1CCc2nc(N3CCC(c4ncc(Cl)cn4)CC3)nc(NC3(CO)CCC3)c21 (stereo not shown) [BI 1015550]
% Incidence of Diarrhea in IPF Clinical Trials [6]: 17%
